Literature values in patent US9134323B2, “Antibody that specifically binds to an epitope in the tureet region of a human Kir channel” (priority 2009, dated 2015).
Where no end group is shown, it is not given here.

Assays:
Kir1.1 channels = biological target: T1, Kir1.1 channels (Homo sapiens, UniProt P48048)
T1 sequence (P48048 1-391): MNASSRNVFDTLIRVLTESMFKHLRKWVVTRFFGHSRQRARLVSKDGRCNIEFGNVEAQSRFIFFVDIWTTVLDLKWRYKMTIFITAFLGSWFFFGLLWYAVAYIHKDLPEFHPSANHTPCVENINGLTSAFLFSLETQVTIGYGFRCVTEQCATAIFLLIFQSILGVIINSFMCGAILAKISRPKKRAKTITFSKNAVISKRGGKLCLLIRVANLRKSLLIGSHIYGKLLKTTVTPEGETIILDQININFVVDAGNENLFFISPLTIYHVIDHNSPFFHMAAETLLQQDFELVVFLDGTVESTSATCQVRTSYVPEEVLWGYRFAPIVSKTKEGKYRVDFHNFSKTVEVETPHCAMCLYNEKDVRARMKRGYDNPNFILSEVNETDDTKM

Kir3.4 channels = biological target: T2, Kir3.4 channels (Homo sapiens, UniProt P48544+P48549)
T2 sequence (P48544 1-419): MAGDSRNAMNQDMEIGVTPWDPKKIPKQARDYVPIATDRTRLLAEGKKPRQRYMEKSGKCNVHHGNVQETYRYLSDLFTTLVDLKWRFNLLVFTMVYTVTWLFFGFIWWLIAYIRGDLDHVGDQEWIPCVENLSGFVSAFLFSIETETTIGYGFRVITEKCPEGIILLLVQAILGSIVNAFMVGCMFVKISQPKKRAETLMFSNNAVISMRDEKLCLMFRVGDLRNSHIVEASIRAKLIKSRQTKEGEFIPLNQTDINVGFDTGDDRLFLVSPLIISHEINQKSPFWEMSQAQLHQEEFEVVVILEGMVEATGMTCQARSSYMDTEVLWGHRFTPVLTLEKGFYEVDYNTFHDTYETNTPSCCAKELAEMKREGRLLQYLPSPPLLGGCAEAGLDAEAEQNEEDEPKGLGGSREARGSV
T2 sequence (P48549 1-501): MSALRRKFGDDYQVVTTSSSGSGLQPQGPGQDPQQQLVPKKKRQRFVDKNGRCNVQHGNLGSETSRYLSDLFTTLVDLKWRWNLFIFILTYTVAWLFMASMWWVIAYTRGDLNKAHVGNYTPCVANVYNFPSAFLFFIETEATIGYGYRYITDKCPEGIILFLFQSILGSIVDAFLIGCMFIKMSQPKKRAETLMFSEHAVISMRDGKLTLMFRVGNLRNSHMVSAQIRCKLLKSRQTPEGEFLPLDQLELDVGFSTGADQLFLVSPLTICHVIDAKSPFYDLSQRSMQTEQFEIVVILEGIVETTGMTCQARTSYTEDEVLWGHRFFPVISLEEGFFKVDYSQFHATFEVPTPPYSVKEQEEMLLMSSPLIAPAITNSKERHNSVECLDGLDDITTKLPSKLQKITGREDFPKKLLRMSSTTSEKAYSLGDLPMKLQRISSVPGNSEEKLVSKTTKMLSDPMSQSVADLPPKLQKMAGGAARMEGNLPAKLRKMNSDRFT

[1] = system: Kir2.1 channel, variable sequence mutated to be Kir3.4-like; conditions: turret variable sequence mutated to be Kir3.4-like
[2] = biological target: T3, Kir2.1 wild-type channels (Homo sapiens, UniProt P63252); conditions: applied to the outside of cells expressing the wild-type channels; 10 mM
T3 sequence (P63252 1-427): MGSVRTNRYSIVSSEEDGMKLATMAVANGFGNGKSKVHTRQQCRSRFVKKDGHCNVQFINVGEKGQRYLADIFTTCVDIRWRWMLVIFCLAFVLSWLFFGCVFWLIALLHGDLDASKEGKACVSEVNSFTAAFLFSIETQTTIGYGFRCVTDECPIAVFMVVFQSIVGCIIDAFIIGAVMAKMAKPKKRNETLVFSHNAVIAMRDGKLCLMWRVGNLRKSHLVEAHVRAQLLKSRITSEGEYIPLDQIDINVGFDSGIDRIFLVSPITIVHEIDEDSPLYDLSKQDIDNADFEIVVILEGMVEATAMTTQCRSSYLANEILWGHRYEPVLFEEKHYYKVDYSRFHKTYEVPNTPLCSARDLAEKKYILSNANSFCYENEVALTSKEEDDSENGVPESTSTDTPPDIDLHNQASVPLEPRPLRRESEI

Molecule	inhibition of Kir1.1 channels (Kir1.1 channels)	inhibition of Kir3.4 channels (Kir3.4 channels)	sensitivity of mutated Kir2.1 channel to the toxin [1]	effect on currents [2]	single channel conductance in the blocked state (Kir1.1 channels; blocked state, reduced rather than inhibited all the way)
tertiapin (ALCNCNRIIIPHMCWKKCGKK; ends and bridges not checked; cysteine pairing not given here; UniProt P56587 1-21, looked up)	inhibits	inhibits	becomes sensitive	–	–
O[C@H](CS)[C@H](O)CS (racemic) [DTT, Dithiothreitol]	–	–	–	did not affect currents	–
δ-dendrotoxin	inhibits	–	–	–	about 10%
N[C@@H](CCC(=O)N[C@@H](CS)C(=O)NCC(=O)O)C(=O)O [reduced glutathione]	–	–	–	did not affect currents	–
